Measurements: patent US9029359B2, “Heteroaryl Btk inhibitors” (Biogen Idec MA, Inc., priority 2009, dated 2015)

Target: T1, BTK (Homo sapiens, UniProt Q06187)
T1 construct: purchased Upstate 14-552
Experiment: In vitro BTK kinase assay: BTK-POLYGAT-LS ASSAY
Assay type: biochemical
Conditions: ATP 10 uM
Procedure, shortened: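 BTK phosphorylation of polyGAT (100 nM final) with ATP at 10 μM final, 10 mM Tris-HCl pH 7.5 kinase buffer, quenched by EDTA after 30 min. Potency given as IC50.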

T1 sequence (Q06187 whole entry): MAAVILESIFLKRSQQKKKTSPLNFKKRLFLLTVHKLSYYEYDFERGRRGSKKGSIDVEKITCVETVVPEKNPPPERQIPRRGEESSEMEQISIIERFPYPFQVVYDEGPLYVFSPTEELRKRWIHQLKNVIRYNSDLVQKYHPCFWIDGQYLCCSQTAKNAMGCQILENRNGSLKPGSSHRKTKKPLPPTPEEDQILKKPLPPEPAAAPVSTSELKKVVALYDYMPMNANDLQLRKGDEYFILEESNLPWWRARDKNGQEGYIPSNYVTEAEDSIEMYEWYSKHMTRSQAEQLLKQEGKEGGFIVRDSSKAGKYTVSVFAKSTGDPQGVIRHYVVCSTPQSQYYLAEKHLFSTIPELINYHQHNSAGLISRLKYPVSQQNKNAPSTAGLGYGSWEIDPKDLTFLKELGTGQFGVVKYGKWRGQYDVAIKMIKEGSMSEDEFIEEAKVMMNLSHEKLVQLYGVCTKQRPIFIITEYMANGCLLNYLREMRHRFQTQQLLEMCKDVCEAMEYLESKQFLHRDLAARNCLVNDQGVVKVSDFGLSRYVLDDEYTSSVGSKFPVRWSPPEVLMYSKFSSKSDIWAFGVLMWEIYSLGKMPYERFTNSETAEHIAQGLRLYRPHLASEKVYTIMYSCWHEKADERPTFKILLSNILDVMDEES

Structure (SMILES) | IC50 [nM]
C[C@H]1CC[C@@H](NC(=O)[C@H](Nc2cc(F)cc(Cl)c2)C2CC2)CN1c1ncnc2[nH]ncc12 [Example 148, (R)-2-(3-chloro-5-fluorophenylamino)-2-cyclopropyl-N-((3R,6S)-6-methyl-1-(1H-pyrazolo[3,4-d]pyrimidin-4-yl)piperidin-3-yl)acetamide] | 100 to 999
O=C(NC1CN(c2ncnc3[nH]ncc23)CCC1c1ccccc1)[C@H](Nc1cc(F)cc(Cl)c1)C1CC1 (stereo partly drawn) [Example 149, (R)-2-(3-chloro-5-fluorophenylamino)-2-cyclopropyl-N-(4-phenyl-1-(1H-pyrazolo[3,4-d]pyrimidin-4-yl)piperidin-3-yl)acetamide] | < 100
C[C@H]1CCN(c2ncnc3[nH]ncc23)C[C@@H]1NC(=O)[C@H](Nc1cc(Cl)cc(Cl)c1)C1CC1 [Example 152, (R)-2-cyclopropyl-2-(3,5-dichlorophenylamino)-N-((3R,4S)-4-methyl-1-(1H-pyrazolo[3,4-d]pyrimidin-4-yl)piperidin-3-yl)acetamide] | < 100
CCC[C@@H](Nc1cc(Cl)cc(Cl)c1)C(=O)N[C@H]1CN(c2ncnc3[nH]ncc23)CC[C@@H]1C [Example 153] | < 100
CC[C@@H](Nc1cc(F)cc(Cl)c1)C(=O)N[C@H]1CN(c2ncnc3[nH]ncc23)CC[C@@H]1C [Example 154] | < 100
O=C(CNc1ccccc1S(=O)(=O)c1ccccc1)N[C@@H]1CCCN(c2ncnc3[nH]ncc23)C1 [Example 163] | < 100
C[C@@H](O)[C@@H](Nc1cc(Cl)cc(Cl)c1)C(=O)N[C@@H]1CCCN(c2ncnc3[nH]ncc23)C1 [Example 164] | < 100
C[C@H](O)[C@@H](Nc1cc(Cl)cc(Cl)c1)C(=O)N[C@@H]1CCCN(c2ncnc3[nH]ncc23)C1 [Example 165] | < 100
CCC[C@@H](Nc1cc(Cl)cc(Cl)c1)C(=O)N[C@@H]1CCCN(c2ncnc3[nH]ncc23)C1 [Example 166] | < 100
O=C(CNc1ccccc1Sc1ccccc1)N[C@@H]1CCCN(c2ncnc3[nH]ncc23)C1 [Example 167] | < 100
CCC[C@@H](Nc1cc(F)cc(Cl)c1)C(=O)N[C@@H]1CCCN(c2ncnc3[nH]ncc23)C1 [Example 168] | < 100
CCC[C@@H](Nc1cccc(Cl)c1)C(=O)N[C@@H]1CCCN(c2ncnc3[nH]ncc23)C1 [Example 169] | < 100
O=C(CNc1ccccc1S(=O)(=O)N1CCCCC1)NC1CCCCN(c2ncnc3[nH]ncc23)C1 (stereo not drawn) [Example 170] | < 100
C[C@@H](O)[C@@H](Nc1cc(F)cc(Cl)c1)C(=O)N[C@@H]1CCCN(c2ncnc3[nH]ncc23)C1 [Example 171] | < 100
CCCN(CC)S(=O)(=O)c1ccccc1NCC(=O)N[C@@H]1CCCN(c2ncnc3[nH]ncc23)C1 [Example 172] | < 100
O=C(CNc1ccccc1S(=O)(=O)c1ccccc1)N[C@@H]1CCCN(c2ncnc3[nH]ccc23)C1 [Example 173] | < 100
C[C@H](O)[C@@H](Nc1cc(F)cc(Cl)c1)C(=O)N[C@@H]1CCCN(c2ncnc3[nH]ncc23)C1 [Example 174] | < 100
O=C(CNc1ccccc1S(=O)(=O)N1CCC(F)(F)CC1)N[C@@H]1CCCN(c2ncnc3[nH]ncc23)C1 [Example 176] | < 100
CCC[C@@H](Nc1cc(Cl)cc(Cl)c1)C(=O)N[C@@H]1CCCN(c2ncnc3[nH]ccc23)C1 [Example 178] | < 100
CC(C)CN(CC(C)C)S(=O)(=O)c1ccccc1NCC(=O)N[C@@H]1CCCN(c2ncnc3[nH]ccc23)C1 [Example 179] | < 100
CC[C@@H](C)[C@@H](Nc1cc(F)cc(Cl)c1)C(=O)N[C@@H]1CCCN(c2ncnc3[nH]ncc23)C1 [Example 180] | < 100
C[C@H](O)[C@@H](Nc1cc(Cl)cc(Cl)c1)C(=O)N[C@@H]1CCCN(c2ncnc3[nH]ccc23)C1 [Example 181] | < 100

Structure (SMILES) | IC50 [nM]
O=C(CNc1ccccc1S(=O)(=O)N1CCCCC1)N[C@@H]1CCCN(c2ncnc3[nH]ccc23)C1 [Example 182] | < 100
O=C(CNc1ccccc1S(=O)(=O)N1CCCCC1)N[C@@H]1CCCN(c2ncnc3[nH]ncc23)C1 [Example 183] | < 100
O=C(NC1CCCCN(c2ncnc3[nH]ncc23)C1)[C@H](Nc1cc(F)cc(Cl)c1)C1CC1 (stereo partly drawn) [Example 184] | < 100
C[C@@H](Nc1cc(F)cc(Cl)c1)C(=O)N[C@@H]1CCCN(c2ncnc3[nH]ncc23)C1 [Example 185] | < 100
CC(C)CN(CC(C)C)S(=O)(=O)c1ccccc1NCC(=O)N[C@@H]1CCCN(c2ncnc3[nH]ncc23)C1 [Example 186] | < 100
O=C(CNc1ccccc1S(=O)(=O)c1cccc(C(F)(F)F)c1)N[C@@H]1CCCN(c2ncnc3[nH]ncc23)C1 [Example 187] | < 100
CC(C)CCSc1ccccc1NCC(=O)N[C@@H]1CCCN(c2ncnc3[nH]ccc23)C1 [Example 188] | < 100
CC1CCCN1S(=O)(=O)c1ccccc1NCC(=O)N[C@@H]1CCCN(c2ncnc3[nH]ncc23)C1 (stereo partly drawn) [Example 189] | < 100
CC[C@H](C)[C@@H](Nc1cc(F)cc(Cl)c1)C(=O)N[C@@H]1CCCN(c2ncnc3[nH]ncc23)C1 [Example 192] | < 100
CCCC[C@@H](Nc1cc(F)cc(Cl)c1)C(=O)N[C@@H]1CCCN(c2ncnc3[nH]ncc23)C1 [Example 193] | < 100
O=C(CNc1ccccc1Sc1ccccc1)N[C@@H]1CCCN(c2ncnc3[nH]ccc23)C1 [Example 194] | < 100
CCN(CC)S(=O)(=O)c1ccccc1NCC(=O)N[C@@H]1CCCN(c2ncnc3[nH]ncc23)C1 [Example 195] | < 100
CCN(C(C)C)S(=O)(=O)c1ccccc1NCC(=O)N[C@@H]1CCCN(c2ncnc3[nH]ncc23)C1 [Example 196] | < 100
CCC[C@@H](Nc1cc(F)cc(Cl)c1)C(=O)N[C@@H]1CCCN(c2ncnc3[nH]ccc23)C1 [Example 197] | < 100
CC1(C)CCCN(S(=O)(=O)c2ccccc2NCC(=O)N[C@@H]2CCCN(c3ncnc4[nH]ncc34)C2)C1 [Example 198] | < 100
CCCCOc1ccccc1NCC(=O)N[C@@H]1CCCN(c2ncnc3[nH]ccc23)C1 [Example 199] | < 100
CC(C)(C)[C@@H](Nc1cc(F)cc(Cl)c1)C(=O)N[C@@H]1CCCN(c2ncnc3[nH]ncc23)C1 [Example 200] | < 100
CC(C)(C)[C@@H](Nc1cc(Cl)cc(Cl)c1)C(=O)N[C@@H]1CCCN(c2ncnc3[nH]ccc23)C1 [Example 202] | < 100
O=C(CNc1ccccc1S(=O)(=O)N1CCCC1)N[C@@H]1CCCN(c2ncnc3[nH]ccc23)C1 [Example 203] | < 100
O=C(CNc1ccccc1Oc1ccccc1)N[C@@H]1CCCN(c2ncnc3[nH]ncc23)C1 [Example 204] | < 100
O=C(CNc1ccccc1S(=O)(=O)N1CCCC1)N[C@@H]1CCCN(c2ncnc3[nH]ncc23)C1 [Example 205] | < 100
C[C@H](O)[C@@H](Nc1cc(F)cc(Cl)c1)C(=O)N[C@@H]1CCCN(c2ncnc3[nH]ccc23)C1 [Example 206] | < 100

Structure (SMILES) | IC50 [nM]
CCN(C)S(=O)(=O)c1ccccc1NCC(=O)N[C@@H]1CCCN(c2ncnc3[nH]ccc23)C1 [Example 207] | < 100
CCN(CC)S(=O)(=O)c1ccccc1NCC(=O)N[C@@H]1CCCN(c2ncnc3[nH]ccc23)C1 [Example 208] | < 100
CC(C)[C@@H](Nc1cc(F)cc(Cl)c1)C(=O)N[C@@H]1CCCN(c2ncnc3[nH]ccc23)C1 [Example 209] | < 100
CC(C)c1ccccc1NCC(=O)N[C@@H]1CCCN(c2ncnc3[nH]ccc23)C1 [Example 210] | < 100
CN(C1CCCC1)S(=O)(=O)c1ccccc1NCC(=O)N[C@@H]1CCCN(c2ncnc3[nH]ncc23)C1 [Example 211] | < 100
CC1CCN(S(=O)(=O)c2ccccc2NCC(=O)N[C@@H]2CCCN(c3ncnc4[nH]ncc34)C2)CC1 [Example 212] | < 100
CCN(C)S(=O)(=O)c1ccccc1NCC(=O)N[C@@H]1CCCN(c2ncnc3[nH]ncc23)C1 [Example 213] | < 100
CC1CCCCN1S(=O)(=O)c1ccccc1NCC(=O)N[C@@H]1CCCN(c2ncnc3[nH]ncc23)C1 (stereo partly drawn) [Example 214] | < 100
CCC[C@@H](Nc1cccc(Cl)c1)C(=O)N[C@@H]1CCCN(c2ncnc3[nH]ccc23)C1 [Example 215] | < 100
O=C(CNc1ccccc1S(=O)(=O)N1CCC(C(F)(F)F)CC1)N[C@@H]1CCCN(c2ncnc3[nH]ccc23)C1 [Example 217] | < 100
CC(C)c1ccccc1NCC(=O)N[C@@H]1CCCN(c2ncnc3[nH]ncc23)C1 [Example 219] | < 100
CC1CCC(C)N1S(=O)(=O)c1ccccc1NCC(=O)N[C@@H]1CCCN(c2ncnc3[nH]ncc23)C1 (stereo partly drawn) [Example 220] | < 100
O=C(CNc1ccccc1OCCc1ccccc1)N[C@@H]1CCCN(c2ncnc3[nH]ccc23)C1 [Example 221] | < 100
O=C(CNc1ccccc1OC1CCCC1)N[C@@H]1CCCN(c2ncnc3[nH]ccc23)C1 [Example 222] | < 100
CN(C(=O)CNc1ccccc1)C1CCCN(c2ncnc3[nH]ccc23)C1 (stereo not drawn) [Example 223] | 100 to 999
CC1CC(C)CN(S(=O)(=O)c2ccccc2NCC(=O)N[C@@H]2CCCN(c3ncnc4[nH]ncc34)C2)C1 (stereo partly drawn) [Example 224] | < 100
CC[C@@H](Nc1cc(F)cc(Cl)c1)C(=O)N[C@@H]1CCCN(c2ncnc3[nH]ccc23)C1 [Example 225] | < 100
C[C@@H](O)[C@@H](Nc1cc(F)cc(Cl)c1)C(=O)N[C@H]1CN(c2ncnc3[nH]ncc23)CC[C@@H]1C [Example 226] | < 100
O=C(CNc1ccccc1S(=O)(=O)N1CC2CCCC2C1)N[C@@H]1CCCN(c2ncnc3[nH]ncc23)C1 (stereo partly drawn) [Example 227] | < 100
O=C(CNc1ccccc1S(=O)(=O)N1CCC(C(F)(F)F)CC1)N[C@@H]1CCCN(c2ncnc3[nH]ncc23)C1 [Example 228] | < 100
CC1CCCC(C)N1S(=O)(=O)c1ccccc1NCC(=O)N[C@@H]1CCCN(c2ncnc3[nH]ncc23)C1 (stereo partly drawn) [Example 229] | < 100
O=C(N[C@@H](C(=O)N[C@@H]1CCCN(c2ncnc3[nH]ccc23)C1)C1CC1)c1ccccc1O [Example 230] | 100 to 999
